Measured values reported in US20260109732A1, “LIPID AMINES” (ModernaTX, Inc., priority 2021, published 2026).
Counter-ions that a name gives are not always drawn.

Assays:
[1] = Diameter and PDI from DLS measurements of mRNA nanoparticles with lipid amines; format: physicochemical
How it was run: (§1)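 Ionizable lipid nanoparticles (IL1:DSPC:cholesterol:PEG-DMG-2K) formed by vortex mixing at pH 4, loaded with luciferase or CFTR mRNA at N:P 4.93, neutralized with TRIS pH 8.12, then modified with lipid amine SA50 at pH 7.5. Particle diameter and PDI read by DLS; mRNA encapsulation by Ribogreen assay.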

[2] = tested on: HeLa cells; experiment: CFTR Protein Expression Assay in HeLa Cells; format: cell-based, Human; details: LNPs encapsulating CFTR mRNA, N=4 wells; 5 h serum-free then 24 h; immunofluorescence vs PBS control
How it was run: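 HeLa cells dosed with CFTR mRNA LNPs (70 mM NaCl final buffer matrix) in serum-free MEM for 5 h, then complete MEM for 24 h. Fixed cells immunostained with anti-CFTR monoclonal and Alexa 488 secondary, imaged confocally; CFTR intensity per cell expressed as fold-change versus PBS buffer control, N=4 wells.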

[3] = tested on: HeLa cells; experiment: Luciferase Protein Expression Assay in HeLa Cells; format: cell-based, Human; details: LNPs encapsulating Luciferase mRNA, 25 ng per well, N=4 wells; 5 h serum-free then 24 h; ONE-Glo
How it was run: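 HeLa cells received LNPs carrying luciferase mRNA (25 ng per well) or PBS in serum-free MEM for 5 h, then complete MEM for a further 24 h. Luciferase then read by ONE-Glo luminescence after lysis and reported as average RLU of 4 replicate wells.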

[4] = Encapsulation of mRNA nanoparticles with lipid amines using Ribogreen assay; format: physicochemical
How it was run: as §1

[5] = CFTR mRNA nanoparticle with lipid amine
[6] = Luciferase mRNA nanoparticle modified with lipid amine

Compound | Diameter (nm) [1, 5] | PDI [1, 5] | Diameter (nm) [1, 6] | PDI [1, 6] | Average fold-change in CFTR signal intensity per cell compared to buffer control ± standard deviation [2] | Average Relative Light Units ± Standard Deviation [3] | % Encapsulation (Ribogreen) [4, 5] | % Encapsulation (Ribogreen) [4, 6]
CC[C@H](CC[C@@H](C)[C@H]1CC[C@H]2[C@@H]3CC=C4C[C@@H](OC(=O)N(CCCCNCCC(N)(CC)CC)CCC(N)(CC)CC)CC[C@]4(C)[C@H]3CC[C@]12C)C(C)C [SA183, (3S,8S,9S,10R,13R,14S,17R)-17-((2R,5R)-5-ethyl-6-methylheptan-2-yl)-10,13-dimethyl-2,3,4,7,8,9,10,11,12,13,14,15,16,17-tetradecahydro-1H-cyclopenta[a]phenanthren-3-yl (3-amino-3-ethylpentyl)(4-((3-amino-3-ethylpentyl)amino)butyl)carbamate trihydrochloride] | 71 nm | 0.14 | 76 nm | 0.21 | 13.6 ± 0.7 fold-change | 33915.2 ± 6639.9 Relative Light Units | 99.0% | 99.6%
CC(C)CCC[C@@H](C)[C@H]1CC[C@H]2[C@@H]3CC=C4C[C@@H](OC(=O)N(CCCN)CCCCCCN)CC[C@]4(C)[C@H]3CC[C@]12C [SA83, (3S,8S,9S,10R,13R,14S,17R)-10,13-Dimethyl-17-((R)-6-methylheptan-2-yl)-2,3,4,7,8,9,10,11,12,13,14,15,16,17-tetradecahydro-1H-cyclopenta[a]phenanthren-3-yl (6-aminohexyl)(3-aminopropyl)carbamate dihydrochloride] | 82.3 nm | 0.15 | 75 nm | 0.14 | 4.8 ± 0.3 fold-change | 35394.8 ± 5033.2 Relative Light Units | 99.8% | 99.3%
CC(C)CCC[C@@H](C)[C@H]1CC[C@H]2[C@@H]3CC=C4C[C@@H](OC(=O)CCC(=O)N(CCC(C)(C)N)CCC(C)(C)N)CC[C@]4(C)[C@H]3CC[C@]12C [SA169, (3S,8S,9S,10R,13R,14S,17R)-10,13-dimethyl-17-((R)-6-methylheptan-2-yl)-2,3,4,7,8,9,10,11,12,13,14,15,16,17-tetradecahydro-1H-cyclopenta[a]phenanthren-3-yl 4-(bis(3-amino-3-methylbutyl)amino)-4-oxobutanoate dihydrochloride] | 73.0 nm | 0.14 | 77 nm | 0.20 | 19.7 ± 1.6 fold-change | 28034.9 ± 4050.3 Relative Light Units | 99.2% | 99.4%
CC[C@H](CC[C@@H](C)[C@H]1CC[C@H]2[C@@H]3CC=C4C[C@@H](OC(=O)N(CCCCNCCC(C)(C)N)CCC(C)(C)N)CC[C@]4(C)[C@H]3CC[C@]12C)C(C)C [SA114, (3S,8S,9S,10R,13R,14S,17R)-17-((2R,5R)-5-ethyl-6-methylheptan-2-yl)-10,13-dimethyl-2,3,4,7,8,9,10,11,12,13,14,15,16,17-tetradecahydro-1H-cyclopenta[a]phenanthren-3-yl (3-amino-3-methylbutyl)(4-((3-amino-3-methylbutyl)amino)butyl)carbamate trihydrochloride] | 85.9 nm | 0.13 | 75 nm | 0.18 | 6.3 ± 1.3 fold-change | 22594.3 ± 9128.4 Relative Light Units | 98.5% | 99.7%
CC[C@H](CC[C@@H](C)[C@H]1CC[C@H]2[C@@H]3CC=C4C[C@@H](OC(=O)N(CCCN)CCCCCCCCCCN)CC[C@]4(C)[C@H]3CC[C@]12C)C(C)C [SA96, (3S,8S,9S,10R,13R,14S,17R)-17-((2R,5R)-5-Ethyl-6-methylheptan-2-yl)-10,13-dimethyl-2,3,4,7,8,9,10,11,12,13,14,15,16,17-tetradecahydro-1H-cyclopenta[a]phenanthren-3-yl (10-aminodecyl)(3-aminopropyl)carbamate dihydrochloride] | 82.3 nm | 0.12 | 71 nm | 0.15 | 5.2 ± 0.7 fold-change | 17172.8 ± 2176 Relative Light Units | 98.9% | 99.6%
CCC(N)(CC)CCNCCCCN(CCC(N)(CC)CC)C(=O)O[C@H]1CC[C@@]2(C)C(=CC[C@H]3[C@@H]4CC[C@H]([C@H](C)CCCC(C)C)[C@@]4(C)CC[C@@H]32)C1.Cl.Cl.Cl [SA133, (3S,8S,9S,10R,13R,14S,17R)-10,13-dimethyl-17-((R)-6-methylheptan-2-yl)-2,3,4,7,8,9,10,11,12,13,14,15,16,17-tetradecahydro-1H-cyclopenta[a]phenanthren-3-yl (3-amino-3-ethylpentyl)(4-((3-amino-3-ethylpentyl)amino)butyl)carbamate trihydrochloride] | 73.5 nm | 0.11 | 73 nm | 0.17 | 18.5 ± 0.8 fold-change | 26696.2 ± 5831.4 Relative Light Units | 99.4% | 99.0%
CC(C)CCC[C@@H](C)[C@H]1CC[C@H]2[C@@H]3CC=C4C[C@@H](OC(=O)CCCC(=O)N(CCCN)CCCCCCCCN)CC[C@]4(C)[C@H]3CC[C@]12C.Cl.Cl [SA134, (3S,8S,9S,10R,13R,14S,17R)-10,13-dimethyl-17-((R)-6-methylheptan-2-yl)-2,3,4,7,8,9,10,11,12,13,14,15,16,17-tetradecahydro-1H-cyclopenta[a]phenanthren-3-yl 5-((8-aminooctyl)(3-aminopropyl)amino)-5-oxopentanoate dihydrochloride] | 74.1 nm | 0.10 | 72 nm | 0.13 | 17.7 ± 0.9 fold-change | 29194.3 ± 6336.9 Relative Light Units | 98.7% | 99.5%
CC(C)CCC[C@@H](C)[C@H]1CC[C@H]2[C@@H]3CC=C4C[C@@H](OC(=O)N(CCCCNCC(F)CN)CC(F)CN)CC[C@]4(C)[C@H]3CC[C@]12C (stereo partly drawn) [SA87, (3S,8S,9S,10R,13R,14S,17R)-10,13-dimethyl-17-((R)-6-methylheptan-2-yl)-2,3,4,7,8,9,10,11,12,13,14,15,16,17-tetradecahydro-1H-cyclopenta[a]phenanthren-3-yl (3-amino-2-fluoropropyl)(4-((3-amino-2-fluoropropyl)amino)butyl)carbamate trihydrochloride] | 81.2 nm | 0.1 | 75 nm | 0.18 | 3.2 ± 0.1 fold-change | 13346.1 ± 2590.8 Relative Light Units | 99.5% | 98.2%
